Values of other authors, collected in paper PMC9091901 (Journal of Pharmaceutical Analysis, 2021).

Settings: octanol-water partition coefficient; ref DrugBank database

Compared with `O=C(O)c1cccc(C(=O)O)n1` [2,6-pyridinedicarboxylic acid], `CCOC(=O)C1=C(C)NC(C)=C(C(=O)OC)C1c1cccc([N+](=O)[O-])c1` (centres unmarked) [Nitrendipine] is higher in “log P” value: −0.44 for the first, 2.88 for the second.

First: O=c1cc(O)c2ccccc2o1 [4-hydroxycoumarin]
Second: CC1Cc2ccccc2N1NC(=O)c1ccc(Cl)c(S(N)(=O)=O)c1 (centres unmarked) [Indapamide]
The “log P” value of the first is lower: 1.01 for the first, 2.52 for the second.

First: NCC[C@H](O)C(=O)N[C@@H]1C[C@H](N)[C@@H](O[C@H]2O[C@H](CN)[C@@H](O)[C@H](O)[C@H]2O)[C@H](O)[C@H]1O[C@H]1O[C@H](CO)[C@@H](O)[C@H](N)[C@H]1O [Amikacin]
Second: CCN(CC)CCOC(=O)c1ccc(N)cc1 [Procaine]
The “log P” value of the first is lower: −3.20 for the first, 2.14 for the second.

First: CCN(CC)Cc1cc(Nc2ccnc3cc(Cl)ccc23)ccc1O [Amodiaquine]
Second: CC(COc1ccccc1)N(CCCl)Cc1ccccc1 (centres unmarked) [Phenoxybenzamine]
The “log P” value of the first is lower: 3.70 for the first, 4.70 for the second.

Compared with `CC(C)(N)Cc1ccc(Cl)cc1` [Chlorphentermine], `CCOC(=O)C(C)(C)Oc1ccc(Cl)cc1` [Clofibrate] is higher in “log P” value: 2.60 for the first, 3.30 for the second.

Compared with `O=c1[nH]c2ccccc2n1CCCN1CCC(n2c(=O)[nH]c3cc(Cl)ccc32)CC1` [Domperidone], `CN1C(=O)NC(=O)C(C)(C2=CCCCC2)C1=O` (centres unmarked) [Hexobarbital] is lower in “log P” value: 3.90 for the first, 1.98 for the second.

First: CC(C)NCC(O)c1ccc(NS(C)(=O)=O)cc1 (centres unmarked) [Sotalol]
Second: CC(C)(C)c1cc(O)ccc1O [Tert-butylhydroquinone]
The “log P” value of the first is lower: −0.40 for the first, 2.91 for the second.
